Results as given in patent publication US20160090556A1, “PRODUCTS COMPRISING MALODOR REDUCTION MATERIALS” (The Procter & Gamble Company, priority 2014, published 2016).

test: Liquid dish neat product liquid-air partition coefficient; assay type: physicochemical; conditions: not given

SMILES	Log of liquid dish neat product liquid-air partition coefficient (Comment Code K/L)
CC1CC(C)(C)OC(Cc2ccccc2)O1 (stereo not drawn) [Material 1003]	K (Log of liquid dish neat product liquid-air partition coefficient greater than or equal to −7)
C=CC(C)=CCC=C(C)CCC=C(C)C=O [Material 691]	K (Log of liquid dish neat product liquid-air partition coefficient greater than or equal to −7)
CC1=CCC(CCC(C)CO)C1(C)C (stereo not drawn) [Material 600]	K (Log of liquid dish neat product liquid-air partition coefficient greater than or equal to −7)
CC(=CCCC1(C)C2CC3C(C2)C31C)CO (stereo not drawn) [Material 694]	K (Log of liquid dish neat product liquid-air partition coefficient greater than or equal to −7)
C=CCCCCCCCCCO [Material 870]	K (Log of liquid dish neat product liquid-air partition coefficient greater than or equal to −7)
c1ccc(CCOC2CCCCC2)cc1 [Material 953]	K (Log of liquid dish neat product liquid-air partition coefficient greater than or equal to −7)
CCC(=O)C=CC1C(C)=CCCC1(C)C (stereo not drawn) [Material 700]	K (Log of liquid dish neat product liquid-air partition coefficient greater than or equal to −7)
C=C(C)C1CC=C(C)C(OC(C)=O)C1 (stereo not drawn) [Material 577]	K (Log of liquid dish neat product liquid-air partition coefficient greater than or equal to −7)
C=C1CCCC(C)(C)C1C=C(C)C(C)=O (stereo not drawn) [Material 913]	K (Log of liquid dish neat product liquid-air partition coefficient greater than or equal to −7)
OCCOc1ccccc1 [Material 834]	K (Log of liquid dish neat product liquid-air partition coefficient greater than or equal to −7)
CC1CC2CCC3C(C2O1)C(C)(C)C(C)C3(C)C (stereo not drawn) [Material 1097]	K (Log of liquid dish neat product liquid-air partition coefficient greater than or equal to −7)
CC1=CCC(C23CCCC(C)(C2)OC3)C1(C)C (stereo not drawn) [Material 570]	K (Log of liquid dish neat product liquid-air partition coefficient greater than or equal to −7)
CC(C)=CCC/C(C)=C/CC/C(C)=C/CO [Material 1065]	K (Log of liquid dish neat product liquid-air partition coefficient greater than or equal to −7)
CC(=O)C1CC/C(C)=C\CC/C(C)=C\C/C=C/1C (stereo not drawn) [Material 1095]	K (Log of liquid dish neat product liquid-air partition coefficient greater than or equal to −7)
CC1CC=CCCCCCCCC(=O)OCC1 (stereo not drawn) [Material 1099]	K (Log of liquid dish neat product liquid-air partition coefficient greater than or equal to −7)
CC1CCC2(O)C(C)(C)C3CCC2(C)C1C3 (stereo not drawn) [Material 933]	K (Log of liquid dish neat product liquid-air partition coefficient greater than or equal to −7)
CC1=CCC(/C=C/C(C)(C)C(C)O)C1(C)C (stereo not drawn) [Material 985]	K (Log of liquid dish neat product liquid-air partition coefficient greater than or equal to −7)
CC1=CCC(CCC(C)C(C)O)C1(C)C (stereo not drawn) [Material 1023]	K (Log of liquid dish neat product liquid-air partition coefficient greater than or equal to −7)

same assay, conditions: class code letter within Comment Code

SMILES	Log of liquid dish neat product liquid-air partition coefficient (Comment Code K/L)
CC=CC(=O)C1C(C)C=CCC1(C)C (stereo not drawn) [Material 466]	K (Log of liquid dish neat product liquid-air partition coefficient greater than or equal to −7)
Cc1ccc(C(C)(C)O)cc1 [Material 4]	K (Log of liquid dish neat product liquid-air partition coefficient greater than or equal to −7)
Cc1ccc2c(c1)CC(C)(CO)C2 (stereo not drawn) [Material 161]	K (Log of liquid dish neat product liquid-air partition coefficient greater than or equal to −7)
COC1(OC)CCCCCCCCCCC1 [Material 10]	K (Log of liquid dish neat product liquid-air partition coefficient greater than or equal to −7)
CC(C)=CCCC(C)=CCCc1ccncc1 [Material 135]	K (Log of liquid dish neat product liquid-air partition coefficient greater than or equal to −7)
C=C1C=CC(C(C)C)CCC(C)=CCC1 (stereo not drawn) [Material 296]	K (Log of liquid dish neat product liquid-air partition coefficient greater than or equal to −7)
CC(=O)/C=C/C1C(C)CCC(C)C1(C)C (stereo not drawn) [Material 71]	K (Log of liquid dish neat product liquid-air partition coefficient greater than or equal to −7)
C=CCCCCCCCCO [Material 470]	K (Log of liquid dish neat product liquid-air partition coefficient greater than or equal to −7)
CC(C)=CCCC(C)=CCCC(C)=CCO [Material 369]	K (Log of liquid dish neat product liquid-air partition coefficient greater than or equal to −7)
C=C(C)C1CC=C(C)C(O)C1 (stereo not drawn) [Material 531]	K (Log of liquid dish neat product liquid-air partition coefficient greater than or equal to −7)
CCC=CCC1C(=O)CCC1CC(=O)OC (stereo not drawn) [Material 112]	K (Log of liquid dish neat product liquid-air partition coefficient greater than or equal to −7)
Cc1ccc2c(c1)OCC(=O)CO2 [Material 17]	K (Log of liquid dish neat product liquid-air partition coefficient greater than or equal to −7)
C=CC(C)=CCCC(C)(C)O [Material 43]	K (Log of liquid dish neat product liquid-air partition coefficient greater than or equal to −7)
C=CCc1ccc(OC)c(OC)c1 [Material 110]	K (Log of liquid dish neat product liquid-air partition coefficient greater than or equal to −7)
C=CC(C)(CCC=C(C)C)OC(=O)C(C)C (stereo not drawn) [Material 149]	K (Log of liquid dish neat product liquid-air partition coefficient greater than or equal to −7)
CCCC(=O)OC(C)(C)Cc1ccccc1 [Material 432]	K (Log of liquid dish neat product liquid-air partition coefficient greater than or equal to −7)
COc1ccccc1-c1ccccc1 [Material 22]	K (Log of liquid dish neat product liquid-air partition coefficient greater than or equal to −7)
CC/C=C\CCOC(=O)C/C=C\CC [Material 534]	K (Log of liquid dish neat product liquid-air partition coefficient greater than or equal to −7)

same assay, conditions: code letters K, L

SMILES	Comment Code: Log of liquid dish neat product liquid-air partition coefficient
O=C/C=C/c1ccccc1 [Material 554]	K (Log of liquid dish neat product liquid-air partition coefficient greater than or equal to −7)
Cc1n[nH]cc1-c1ccccc1 [Material 808]	K (Log of liquid dish neat product liquid-air partition coefficient greater than or equal to −7)
CC=Cc1ccc(O)c(OC)c1 [Material 214]	K (Log of liquid dish neat product liquid-air partition coefficient greater than or equal to −7)
CCC(C)C(=O)N(C)c1ccccc1 (stereo not drawn) [Material 314]	K (Log of liquid dish neat product liquid-air partition coefficient greater than or equal to −7)
CNC(=O)C(C)(C(C)C)C(C)C [Material 846]	K (Log of liquid dish neat product liquid-air partition coefficient greater than or equal to −7)
CC(O)CCC1C(C)CCCC1(C)C (stereo not drawn) [Material 1052]	K (Log of liquid dish neat product liquid-air partition coefficient greater than or equal to −7)
CC(=CCCC1(C)C2CC3C(C2)C31C)CO (stereo not drawn) [Material 694]	K (Log of liquid dish neat product liquid-air partition coefficient greater than or equal to −7)
Cc1cc(O)cc(C)c1Cl [Material 557]	K (Log of liquid dish neat product liquid-air partition coefficient greater than or equal to −7)
N#CC=Cc1ccccc1 [Material 549]	K (Log of liquid dish neat product liquid-air partition coefficient greater than or equal to −7)
CCOC(=O)C=Cc1ccccc1 [Material 400]	K (Log of liquid dish neat product liquid-air partition coefficient greater than or equal to −7)
CC(C)=CCC/C(C)=C\COC=O [Material 59]	K (Log of liquid dish neat product liquid-air partition coefficient greater than or equal to −7)
CCCCCCOC(=O)c1ccco1 [Material 275]	K (Log of liquid dish neat product liquid-air partition coefficient greater than or equal to −7)
CC1CC2CCC3C(C2O1)C(C)(C)C(C)C3(C)C (stereo not drawn) [Material 1097]	K (Log of liquid dish neat product liquid-air partition coefficient greater than or equal to −7)
CC1=CCC(C23CCCC(C)(C2)OC3)C1(C)C (stereo not drawn) [Material 570]	K (Log of liquid dish neat product liquid-air partition coefficient greater than or equal to −7)
C/C=C(\C)C(=O)OCC/C=C\CC [Material 536]	K (Log of liquid dish neat product liquid-air partition coefficient greater than or equal to −7)
CC1CCC2(O)C(C)(C)C3CCC2(C)C1C3 (stereo not drawn) [Material 933]	K (Log of liquid dish neat product liquid-air partition coefficient greater than or equal to −7)
CCOc1cc(COC)ccc1O [Material 115]	K (Log of liquid dish neat product liquid-air partition coefficient greater than or equal to −7)
C=CC(C)(O)CCC=C(C)C (stereo not drawn) [Material 157]	K (Log of liquid dish neat product liquid-air partition coefficient greater than or equal to −7)
